From DBAASP
Values after ≈ are worked out from the molar mass of the structure shown.

Tests used:
Experiment in all cases: ≥ marks a high value that may be exact or a test limit, other limits are often not marked, values filed in µg/mL are converted to µM
[1] = tested on: Pseudomonas aeruginosa ATCC 9027
[2] = tested on: Micrococcus luteus ATCC 4698
[3] = tested on: Proteus mirabilis ATCC 25933
[4] = tested on: Shigella dysenteriae ATCC 9752
[5] = tested on: Escherichia coli KCTC 2433
[6] = tested on: Staphylococcus aureus KCTC 3881
[7] = tested on: Bacillus subtilis ATCC 6633
[8] = tested on: Klebsiella pneumoniae ATCC 10031
[9] = tested on: Candida albicans ATCC 36232
[10] = tested on: Staphylococcus epidermidis ATCC 12228
[11] = tested on: Escherichia coli ATCC 25922
Escherichia coli = tested on: Escherichia coli
Pseudomonas aeruginosa = tested on: Pseudomonas aeruginosa
Acinetobacter sp. = tested on: Acinetobacter sp.
Pseudomonas sp. = tested on: Pseudomonas sp.
[12] = tested on: Pseudomonas aeruginosa ATCC 27853
Staphylococcus aureus = tested on: Staphylococcus aureus
Bacillus subtilis = tested on: Bacillus subtilis
[13] = tested on: Staphylococcus aureus ATCC 25923
Citrobacter sp. = tested on: Citrobacter sp.
Klebsiella pneumoniae = tested on: Klebsiella pneumoniae
[14] = tested on: Staphylococcus aureus ATCC 29213
[15] = tested on: Klebsiella aerogenes LMG 02094
[16] = tested on: Staphylococcus epidermidis
[17] = tested on: Pseudomonas aeruginosa LMG 6395
Escherichia coli UB1005 = tested on: Escherichia coli UB1005
[18] = tested on: Staphylococcus aureus USA 100
[19] = tested on: Mycobacterium tuberculosis H37Rv
[20] = tested on: Klebsiella pneumoniae LMG 20218
[21] = tested on: Malassezia furfur KCTC 7744
[22] = tested on: Escherichia coli LMG 15862
[23] = tested on: Pseudomonas aeruginosa PAO1 H103
[24] = tested on: Staphylococcus aureus USA 300
[25] = tested on: Enterococcus faecalis ATCC 29212
[26] = tested on: Pseudomonas aeruginosa H103
[27] = tested on: Salmonella enterica serovar Typhimurium
[28] = tested on: Acinetobacter baumannii LMG 01041
Candida albicans = tested on: Candida albicans
[29] = tested on: Candida parapsilosis ATCC 22019
[30] = tested on: Trichosporon beigelii KCTC 7707
[31] = tested on: Bacillus subtilis KCCM 11495
[32] = tested on: Escherichia coli KCCM 11569

CC[C@H](C)[C@H](NC(=O)[C@H](CC(C)C)NC(=O)[C@@H](N)Cc1ccccc1)C(=O)NCC(=O)N[C@@H](CCSC)C(=O)N[C@H](C(=O)N[C@@H](Cc1cnc[nH]1)C(=O)NCC(=O)N[C@@H](CC(C)C)C(=O)N[C@H](C(=O)N[C@H]1CSSC[C@@H](C(=O)O)NC(=O)[C@H](CCCCN)NC(=O)[C@H](CCCN=C(N)N)NC(=O)[C@H](CO)NC(=O)[C@H]([C@@H](C)CC)NC(=O)[C@H](CC(C)C)NC1=O)[C@@H](C)CC)[C@@H](C)O [FLIGMTHGLICLISRKC]
MIC [1]: > 52.5 µM
MIC [2]: 6.56 µM (≈ 12.5 µg/mL)
MIC [3]: ≥ 52.5 µM
MIC [4]: ≥ 52.5 µM
MIC [5]: ≥ 52.5 µM
MIC [6]: 13.1 µM (≈ 25 µg/mL)
MIC [7]: 26.2 µM (≈ 49.9 µg/mL)
MIC [8]: ≥ 52.5 µM
MIC [9]: ≥ 52.5 µM
MIC [10]: 31.5 µM (≈ 59.9 µg/mL)

CC[C@H](C)[C@H](NC(=O)[C@H](CC(C)C)NC(=O)[C@H](CCCN=C(N)N)NC(=O)[C@H](CC(C)C)NC(=O)[C@H](CCCCN)NC(=O)CN)C(=O)N[C@@H](CCCCN)C(=O)N[C@@H](CCCCN)C(=O)N[C@@H](CC(C)C)C(=O)N[C@@H](Cc1c[nH]c2ccccc12)C(=O)N[C@H](C(=O)N[C@@H](CCCCN)C(=O)N[C@@H](CCCCN)C(=O)N[C@@H](Cc1c[nH]c2ccccc12)C(=O)N[C@@H](CCCCN)C(=O)N[C@@H](CCCCN)C(=O)N[C@@H](CCCCN)C(=O)NCC(=O)N[C@@H](Cc1c[nH]c2ccccc12)C(=O)N[C@@H](CCCCN)C(=O)N[C@@H](C)C(N)=O)C(C)C [GKLRLIKKLWVKKWKKKGWKA]
MIC [11]: 2 µM (≈ 5.24 µg/mL)
MIC (Escherichia coli): 2 µM (≈ 5.24 µg/mL)
MIC (Pseudomonas aeruginosa): 2 µM (≈ 5.24 µg/mL)
MIC (Acinetobacter sp.): 2 µM (≈ 5.24 µg/mL)
MIC (Pseudomonas sp.): 2 µM (≈ 5.24 µg/mL)
MIC [12]: 2 µM (≈ 5.24 µg/mL)
MIC (Staphylococcus aureus): 4 µM (≈ 10.5 µg/mL)
MIC (Bacillus subtilis): 2 µM (≈ 5.24 µg/mL)
MIC [13]: 2 µM (≈ 5.24 µg/mL)
MIC (Citrobacter sp.): 2 µM (≈ 5.24 µg/mL)
MIC (Klebsiella pneumoniae): 2.83 µM (≈ 7.42 µg/mL)

CC[C@H](C)[C@H](NC(=O)[C@@H](NC(=O)[C@H](Cc1c[nH]c2ccccc12)NC(=O)[C@@H](NC(=O)[C@@H](N)CCCN=C(N)N)[C@@H](C)CC)C(C)C)C(=O)N[C@@H](Cc1c[nH]c2ccccc12)C(=O)N[C@@H](CCCN=C(N)N)C(=O)N[C@@H](CCCN=C(N)N)C(N)=O [RIWVIWRR]
MIC [11]: 3.38 µM (≈ 4 µg/mL)
MIC [1]: 12.5 µM (≈ 14.8 µg/mL)
MIC [14]: 6.75 µM (≈ 7.99 µg/mL)
MIC [15]: 5 µM (≈ 5.92 µg/mL)
MIC [16]: 1.69 µM (≈ 2 µg/mL)
MIC [17]: 3 µM (≈ 3.55 µg/mL)
MIC (Escherichia coli UB1005): 1.69 µM (≈ 2 µg/mL)
MIC [18]: 6.25 µM (≈ 7.4 µg/mL)
MIC [19]: 2.2 µM (≈ 2.6 µg/mL)
MIC [20]: 6 µM (≈ 7.1 µg/mL)
MIC [21]: 25 µM (≈ 29.6 µg/mL)
MIC [22]: 3 µM (≈ 3.55 µg/mL)
MIC [13]: 1.69 µM (≈ 2 µg/mL)
MIC [23]: 3.38 µM (≈ 4 µg/mL)
MIC [24]: 6.25 µM (≈ 7.4 µg/mL)
MIC [25]: 1.69 µM (≈ 2 µg/mL)
MIC [26]: 6.75 µM (≈ 7.99 µg/mL)
MIC [27]: 6.75 µM (≈ 7.99 µg/mL)
MIC [28]: 2 µM (≈ 2.37 µg/mL)
MIC (Candida albicans): 6.75 µM (≈ 7.99 µg/mL)
MIC [29]: 12.5 µM (≈ 14.8 µg/mL)
MIC [30]: 12.5 µM (≈ 14.8 µg/mL)

CC(C)C[C@H](NC(=O)CNC(=O)[C@H](Cc1cnc[nH]1)NC(=O)[C@H](Cc1cnc[nH]1)NC(=O)[C@H](CC(C)C)NC(=O)[C@H](CC(C)C)NC(=O)[C@H](C)NC(=O)[C@H](CC(N)=O)NC(=O)[C@H](CC(C)C)NC(=O)[C@@H](N)Cc1c[nH]c2ccccc12)C(=O)N[C@@H](CC(N)=O)C(=O)N[C@@H](CS)C(=O)N[C@@H](C)C(=O)N[C@@H](CCCCN)C(=O)NCC(=O)N[C@H](C(N)=O)C(C)C [WLNALLHHGLNCAKGV]
MIC [31]: 6.48 µM (≈ 11.3 µg/mL)
MIC [32]: 25.9 µM (≈ 45.2 µg/mL)
